The conditions of series [1]: human, serum.
Series [2] can be described thus: Comments (NB not yet translated). [column 'COMMENTAIRES' in source]. The note with it: human.
For series [3] the following is noted: human.
Series [4] can be described thus: Highest frequency of moderate liver toxicity observed during clinical trials, expressed as a percentage. [column '% BIOL' in source]. The note with it: human.
For series [5] the following is noted: human. The source holds these as a separate data set.
The conditions of series [6]: human, serum. This is another data set of the same source.
For series [7] the following is noted: human. The source holds these as a separate data set.
The conditions of series [8]: human, serum, 4383 h.
Series [9] is described as follows: Highest frequency of acute liver toxicity observed during clinical trials, expressed as a percentage. [column '% AIGUE' in source]. The note with it: human.
The conditions of series [10]: human. This is another data set of the same source.
For series [11] the following is noted: human. The source holds these as a separate data set.
The nature of series [12]: Times to onset, minimal and maximal, observed in the indexed observations. [column 'DELAI' in source]. The note with it: human.
The conditions of series [13]: human. This is another data set of the same source.
For series [14] the following is noted: human. This is another data set of the same source.
For series [15] the following is noted: human. This is another data set of the same source.
The conditions of series [16]: human. This is another data set of the same source.

The structures appear in SMILES notation.
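Throughout, for Hepatotoxicity (association with vascular disease): count of indexed literature references reporting vascular liver injury in humans, e.g. peliosis hepatitis, hepatic veno-occlusive disease or Budd-Chiari syndrome.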
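Throughout, for Hepatotoxicity (benign tumour): value is a count of indexed literature references citing a benign tumour confirmed by histopathology.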
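Throughout, for Hepatotoxicity (choleostasis): human cholestatic liver injury, shown by histopathology or by peak ALT or AST elevation over alkaline phosphatase ratio below 2, value counts indexed literature reports.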
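Throughout, for Hepatotoxicity (chronic liver disease): chronic liver injury confirmed by histopathology or persistently raised serum aminotransferase activity beyond 6 months, value given as the count of indexed literature references.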
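Throughout, for Hepatotoxicity (cirrhosis): value is a count of indexed literature references reporting cirrhosis confirmed by histopathology.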
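Throughout, for Hepatotoxicity (cytolytic): human cytolytic liver injury, shown by histopathology or by a ratio above 5 of peak ALT or AST elevation to alkaline phosphatase elevation, value counts indexed references.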
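Throughout, for Hepatotoxicity (granulomatous hepatitis): value is a count of indexed literature references reporting granulomatous liver disease confirmed by histopathology.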
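Throughout, for Hepatotoxicity (malignant tumour): malignant tumour confirmed by histopathology, value gives the count of indexed literature references reporting it.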
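Throughout, for Hepatotoxicity (severe hepatitis): human clinical data: severe hepatitis, meaning potentially life-threatening liver failure or clinically observed cases, the value counts how many indexed literature references report it.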
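Throughout, for Hepatotoxicity (steatosis): steatosis confirmed by histopathology, value is the count of indexed references.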

As for `C[C@]12C=CC(=O)C=C1CC[C@@H]1[C@@H]2CC[C@@]2(C)[C@H]1CC[C@]2(C)O` (stereo in doubt; form 1) [METHANDROSTENOLONE], the “Hepatotoxicity (acute)” value in series [1] is 3; in series [9], 0%. For the same molecule, the “Hepatotoxicity (comment)” value in series [2] is recorded as “ANGIOSARCOME”. The “Hepatotoxicity (association with vascular disease)” value in [3] is 0. The “Hepatotoxicity (moderate)” value in series [4] is recorded as 0%; in series [6], 0. Besides, the “Hepatotoxicity (choleostasis)” value in series [5] was found to be 0. The “Hepatotoxicity (malignant tumour)” value in [7] turned out to be 2. Besides, the “Hepatotoxicity (chronic liver disease)” value in series [8] was determined as 0. Moreover, in [10], the “Hepatotoxicity (cytolytic)” value was found to be 0. The “Hepatotoxicity (benign tumour)” value in [11] was determined as 1. For the same molecule, the “Hepatotoxicity (time to onset)” value in [12] is listed as 1 year - 2 years. The “Hepatotoxicity (steatosis)” value in series [13] is given as 0. For the same molecule, the “Hepatotoxicity (cirrhosis)” value in series [14] amounted to 0. Besides, the “Hepatotoxicity (severe hepatitis)” value in series [15] turned out to be 0. For the same molecule, the “Hepatotoxicity (granulomatous hepatitis)” value in [16] is recorded as 0.
`C[C@]12CC[C@H]3[C@@H](CCC4=CC(=O)CC[C@@]43C)[C@@H]1CC[C@@H]2O` [TESTOSTERONE]: the results for the “Hepatotoxicity (acute)” value in series [1] and in series [9] were 3 and 0%, respectively. Further, in series [2], the “Hepatotoxicity (comment)” value is reported as “ANGIOSARCOME CHOLESTASE_PROLONGEE PELIOSE”. The “Hepatotoxicity (association with vascular disease)” value in series [3] is 6. Moreover, the “Hepatotoxicity (moderate)” value in [4] came out at 0%; in [6] it was 0. Besides, the “Hepatotoxicity (choleostasis)” value in [5] is given as 3. Also, the “Hepatotoxicity (malignant tumour)” value in series [7] worked out at 2. The “Hepatotoxicity (chronic liver disease)” value in series [8] stood at 0. Besides, in series [10], the “Hepatotoxicity (cytolytic)” value worked out at 0. The “Hepatotoxicity (benign tumour)” value in series [11] turned out to be 3. In addition, the “Hepatotoxicity (time to onset)” value in [12] was 3 months - 11 years. In [13], the “Hepatotoxicity (steatosis)” value came to 0. The “Hepatotoxicity (cirrhosis)” value in series [14] was determined as 0. In series [15], the “Hepatotoxicity (severe hepatitis)” value was 1. In addition, the “Hepatotoxicity (granulomatous hepatitis)” value in series [16] is recorded as 0.
Consider `C#CCN(C)[C@H](C)Cc1ccccc1` [SELEGILINE], for which the entries for the “Hepatotoxicity (acute)” value in series [1] and in series [9] were 1 and 0%, respectively. Further, the “Hepatotoxicity (comment)” value in series [2] is reported as “CHOLESTASE_PROLONGEE”. Also, the “Hepatotoxicity (association with vascular disease)” value in series [3] was determined as 0. Besides, the “Hepatotoxicity (moderate)” value came to 4% in series [4] and 2 in [6]. In [5], the “Hepatotoxicity (choleostasis)” value is recorded as 1. Also, the “Hepatotoxicity (malignant tumour)” value in [7] is reported as 0. For the same molecule, the “Hepatotoxicity (chronic liver disease)” value in [8] amounted to 0. Besides, the “Hepatotoxicity (cytolytic)” value in [10] is listed as 0. Further, the “Hepatotoxicity (benign tumour)” value in series [11] amounted to 0. Also, the “Hepatotoxicity (time to onset)” value in series [12] is on record as 3 months. Moreover, the “Hepatotoxicity (steatosis)” value in series [13] is reported as 0. Besides, the “Hepatotoxicity (cirrhosis)” value in series [14] came to 0. The “Hepatotoxicity (severe hepatitis)” value in series [15] is 0. Further, the “Hepatotoxicity (granulomatous hepatitis)” value in [16] turned out to be 0.
In the case of `CC(=O)[C@H]1CC[C@H]2[C@@H]3CCC4=CC(=O)CC[C@]4(C)[C@H]3CC[C@]12C` [PROGESTERONE], the “Hepatotoxicity (acute)” value was found to be 3 in [1] and 0% in [9]. The “Hepatotoxicity (comment)” value in series [2] is listed as “HNF”. In [3], the “Hepatotoxicity (association with vascular disease)” value turned out to be 0. The “Hepatotoxicity (moderate)” value in [4] turned out to be 13.3%; in series [6] it was 2. Besides, in series [5], the “Hepatotoxicity (choleostasis)” value was 1. Besides, in [7], the “Hepatotoxicity (malignant tumour)” value is listed as 0. The “Hepatotoxicity (chronic liver disease)” value in [8] amounted to 0. In addition, the “Hepatotoxicity (cytolytic)” value in series [10] was 2. Besides, in series [11], the “Hepatotoxicity (benign tumour)” value is listed as 1. Further, the “Hepatotoxicity (time to onset)” value in [12] was 1 week - 40 weeks. Moreover, the “Hepatotoxicity (steatosis)” value in series [13] stood at 0. In series [14], the “Hepatotoxicity (cirrhosis)” value was found to be 0. In [15], the “Hepatotoxicity (severe hepatitis)” value is 0. For the same molecule, the “Hepatotoxicity (granulomatous hepatitis)” value in [16] was found to be 0.
On to `O=C(c1ccc(OCCN2CCCCC2)cc1)c1c(-c2ccc(O)cc2)sc2cc(O)ccc12` [RALOXIFENE], for which the “Hepatotoxicity (acute)” value in [1] is recorded as 1; in [9], 0%. Besides, the “Hepatotoxicity (comment)” value in series [2] is given as “CHOLESTASE_PROLONGEE”. The “Hepatotoxicity (association with vascular disease)” value in series [3] is given as 0. The figures for the “Hepatotoxicity (moderate)” value in series [4] and in series [6] were 16.7% and 1, respectively. The “Hepatotoxicity (choleostasis)” value in series [5] came to 1. In series [7], the “Hepatotoxicity (malignant tumour)” value is 0. The “Hepatotoxicity (chronic liver disease)” value in series [8] was determined as 0. Besides, in series [10], the “Hepatotoxicity (cytolytic)” value stood at 0. Moreover, the “Hepatotoxicity (benign tumour)” value in series [11] is on record as 0. Moreover, in series [12], the “Hepatotoxicity (time to onset)” value was found to be 30 days. Moreover, the “Hepatotoxicity (steatosis)” value in series [13] is 0. Moreover, the “Hepatotoxicity (cirrhosis)” value in series [14] worked out at 0. Also, the “Hepatotoxicity (severe hepatitis)” value in series [15] is 0. Besides, the “Hepatotoxicity (granulomatous hepatitis)” value in series [16] turned out to be 0.
Take `N=C(N)c1ccc(/C=C/c2ccc(C(=N)N)cc2O)cc1` [HYDROXYSTILBAMIDINE]: the “Hepatotoxicity (acute)” value in series [1] was 1; in series [9], 0%. Moreover, in series [2], the “Hepatotoxicity (comment)” value is “#S.REYE”. Also, the “Hepatotoxicity (association with vascular disease)” value in series [3] came to 0. The “Hepatotoxicity (moderate)” value came out at 0% in [4] and 0 in series [6]. In addition, in [5], the “Hepatotoxicity (choleostasis)” value is reported as 0. In addition, the “Hepatotoxicity (malignant tumour)” value in series [7] was determined as 0. Besides, in series [8], the “Hepatotoxicity (chronic liver disease)” value is on record as 0. Also, the “Hepatotoxicity (cytolytic)” value in series [10] stood at 0. In addition, in series [11], the “Hepatotoxicity (benign tumour)” value amounted to 0. The “Hepatotoxicity (time to onset)” value in [12] came out at 1 month. Also, the “Hepatotoxicity (steatosis)” value in [13] is given as 1. The “Hepatotoxicity (cirrhosis)” value in series [14] amounted to 0. Moreover, the “Hepatotoxicity (severe hepatitis)” value in series [15] amounted to 0. Besides, the “Hepatotoxicity (granulomatous hepatitis)” value in series [16] amounted to 0.
Take `NS(=O)(=O)c1cc2c(cc1Cl)N=CNS2(=O)=O` [CHLOROTHIAZIDE]: the “Hepatotoxicity (acute)” value in [1] is listed as 5; in series [9], 0%. Besides, the “Hepatotoxicity (comment)” value in series [2] is recorded as “#CBP”. In series [3], the “Hepatotoxicity (association with vascular disease)” value was 0. The “Hepatotoxicity (moderate)” value in series [4] came out at 0%; in [6] it was 0. The “Hepatotoxicity (choleostasis)” value in [5] worked out at 5. Moreover, the “Hepatotoxicity (malignant tumour)” value in series [7] is reported as 0. Further, in series [8], the “Hepatotoxicity (chronic liver disease)” value was 0. In addition, the “Hepatotoxicity (cytolytic)” value in series [10] came out at 0. Besides, the “Hepatotoxicity (benign tumour)” value in series [11] is recorded as 0. The “Hepatotoxicity (time to onset)” value in [12] came out at 2 weeks - 2 years. In [13], the “Hepatotoxicity (steatosis)” value amounted to 0. Also, in [14], the “Hepatotoxicity (cirrhosis)” value came out at 1. Further, the “Hepatotoxicity (severe hepatitis)” value in series [15] is listed as 1. The “Hepatotoxicity (granulomatous hepatitis)” value in [16] amounted to 0.
Regarding `CN(C)CC/C=C1\c2ccccc2CSc2ccccc21` [DOTHIEPIN], the figures for the “Hepatotoxicity (acute)” value in [1] and in series [9] were 3 and 0%, respectively. The “Hepatotoxicity (comment)” value in [2] was “RC/PAROXETINE”. Besides, the “Hepatotoxicity (association with vascular disease)” value in series [3] turned out to be 0. Moreover, the “Hepatotoxicity (moderate)” value in [4] is on record as 4.5%; in [6], 1. In [5], the “Hepatotoxicity (choleostasis)” value stood at 2. In [7], the “Hepatotoxicity (malignant tumour)” value is on record as 0. In addition, the “Hepatotoxicity (chronic liver disease)” value in series [8] was 0. In addition, the “Hepatotoxicity (cytolytic)” value in [10] is listed as 2. The “Hepatotoxicity (benign tumour)” value in series [11] turned out to be 0. For the same molecule, the “Hepatotoxicity (time to onset)” value in series [12] amounted to 40 days - 69 days. Moreover, the “Hepatotoxicity (steatosis)” value in series [13] is listed as 1. In addition, in [14], the “Hepatotoxicity (cirrhosis)” value was found to be 0. For the same molecule, in [15], the “Hepatotoxicity (severe hepatitis)” value was 0. In addition, in series [16], the “Hepatotoxicity (granulomatous hepatitis)” value worked out at 0.
In the case of `C[C@]12C=CC(=O)C=C1CC[C@@H]1[C@@H]2[C@@H](O)C[C@@]2(C)[C@H]1CC[C@]2(O)C(=O)CO` [PREDNISOLONE], the “Hepatotoxicity (acute)” value in series [1] was found to be 2; in [9], 0%. Further, in [2], the “Hepatotoxicity (comment)” value is given as “AGGRAVATION_ANGIOMES”. For the same molecule, the “Hepatotoxicity (association with vascular disease)” value in series [3] was 0. For the same molecule, the “Hepatotoxicity (moderate)” value in series [4] came out at 0%; in series [6] it was 0. Besides, in series [5], the “Hepatotoxicity (choleostasis)” value is on record as 0. In addition, the “Hepatotoxicity (malignant tumour)” value in series [7] is on record as 0. Further, the “Hepatotoxicity (chronic liver disease)” value in series [8] was determined as 0. In addition, the “Hepatotoxicity (cytolytic)” value in [10] was 2. Moreover, the “Hepatotoxicity (benign tumour)” value in series [11] is reported as 1. Further, the “Hepatotoxicity (time to onset)” value in [12] is given as 6 days - 8 years. Moreover, the “Hepatotoxicity (steatosis)” value in [13] is given as 2. Moreover, the “Hepatotoxicity (cirrhosis)” value in [14] was 0. Also, in series [15], the “Hepatotoxicity (severe hepatitis)” value is 2. Moreover, the “Hepatotoxicity (granulomatous hepatitis)” value in series [16] is 0.
On to `CC(C(=O)O)c1cccc(Oc2ccccc2)c1` (stereo not given) [FENOPROFEN], for which the “Hepatotoxicity (acute)” value is on record as 3 in series [1] and 0% in series [9]. Also, in series [2], the “Hepatotoxicity (comment)” value is “RC/NAPROXENE”. Further, the “Hepatotoxicity (association with vascular disease)” value in [3] is listed as 0. Moreover, the “Hepatotoxicity (moderate)” value in [4] is on record as 7%; in [6] it was 1. Also, the “Hepatotoxicity (choleostasis)” value in series [5] came to 1. The “Hepatotoxicity (malignant tumour)” value in [7] was 0. For the same molecule, in series [8], the “Hepatotoxicity (chronic liver disease)” value turned out to be 0. In series [10], the “Hepatotoxicity (cytolytic)” value came to 2. In addition, the “Hepatotoxicity (benign tumour)” value in series [11] came out at 0. The “Hepatotoxicity (time to onset)” value in series [12] is recorded as 1 week - 7 weeks. Moreover, the “Hepatotoxicity (steatosis)” value in [13] is reported as 0. Moreover, the “Hepatotoxicity (cirrhosis)” value in [14] stood at 0. In addition, the “Hepatotoxicity (severe hepatitis)” value in series [15] is 0. Besides, the “Hepatotoxicity (granulomatous hepatitis)” value in series [16] is listed as 0.

For the origin of these results see ChEMBL document CHEMBL3137667, “[Drug-induced liver injury; fourteenth updated edition of the bibliographic database of liver injuries and related drugs]” (Gastroenterol Clin Biol, 2004).
